Measurements taken from publication PMC8156206, “Novel N,N′-Disubstituted Selenoureas as Potential Antioxidant and Cytotoxic Agents” (Antioxidants, 2021).

Columns and labels:
[1] = system: BEAS-2B cells (lung non-malignant derived cell line); assay: MTT cell viability assay, BEAS-2B; assay type: cell-based; conditions: Homo sapiens, 48 h, mean ± SD
Method: (§1) Cell lines were purchased from the American Type Culture Collection (ATCC). MCF-7, HTB-54, BEAS-2B and 184B5 cell lines were grown in RPMI 1640 medium (Gibco) supplemented with 10% fetal bovine serum (FBS; Gibco), 100 units/mL penicillin, and […] streptomycin (Gibco). HT-29 and HCT-116 cell lines was cultured in McCoy’s 5A (Gibco), 10% FBS, 100 units/mL penicillin, and 100 μg/mL streptomycin. Cells were maintained at 37 °C and 5% CO2. Culture medium was replaced every three days.
(§2) A cell viability assay of each compound was carried out using an MTT assay. Each selenourea was dissolved in dimethyl sulfoxide (DMSO) at a concentration of 0.01 M. Serial dilutions were prepared with non-supplemented culture medium. Cytotoxic activity of each selenourea was determined at two different concentrations (10 and 50 µM) in MCF-7, HTB-54, and HT-29 cells. In addition, selected compounds were tested at seven different concentrations (0.1, 1, 5, 10, 25, 50, 100 µM) on MCF-7, HT-29, HCT-116, HTB-54, 184B5, and BEAS-2B cells. The number of passages before defrosting the cells was 3, and they were kept under culture up to a maximum of 15.
(§3) Briefly, 1 × 10^4 cells/well were grown in 96-well plates for 24 h. Then, these cells were incubated with either DMSO (negative control) at 5 µM or a different concentration of each tested selenourea for 48 h. A volume of 20 µL of MTT was added 150 min before the termination point to measure cellular viability. After this time, culture medium was removed. The resultant formazan crystals were dissolved in 50 µL of DMSO, and absorbance was measured at 570 nm. Results are expressed as IC50, the half maximal inhibitory concentration. This value was calculated using GraphPad Prism 7 software by nonlinear curve fitting. Furthermore, the selectivity index (SI) was calculated as the ratio of the IC50 values determined for the non-malignant and the tumoral cells (IC50 (184B5)/IC50 (MCF-7) or (IC50 (BEAS-2B)/IC50 (HTB-54). Data were obtained from at least three independent experiments performed in triplicates.

[2] = system: 184B5 cells (breast non-malignant derived cell line); assay: MTT cell viability assay, 184B5; assay type: cell-based; conditions: Homo sapiens, 184B5; 48 h, MTT, mean ± SD; read-out: IC50 184B5 (breast, non-malignant)
Method: as §1, §2, §3

UO-31 (renal cancer) = assay: cells; assay type: cell-based
Source text: (§4) The dose–response was also studied in the same 60 cancer cell lines, with outstanding results. […] Table 2 summarizes the GI50, TGI, and LC50 values of representative cell lines. Full data mean GI50 graphs are provided in the Supplementary Materials.

NCI-60 cell line panel = assay: cells; assay type: cell-based
Source text: as §4

M14 (melanoma) = assay: cells; assay type: cell-based
Source text: as §4

BT-549 (breast cancer) = assay: cells; assay type: cell-based
Source text: as §4

[3] = system: OVACAR-3 (ovarian cancer); assay: cells; assay type: cell-based
Source text: as §4

[4] = system: MDA-MB-468 (breast cancer); assay: cells; assay type: cell-based
Source text: as §4

HCT-116 (colon cancer) = assay: cells; assay type: cell-based
Source text: as §4

[5] = system: HT-29 cells (colon carcinoma); assay: MTT cell viability assay, HT-29; assay type: cell-based; conditions: Homo sapiens, 48 h, MTT
In short: (§5)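 Cells at 1 × 10^4/well grown 24 h, then treated 48 h with selenourea at 10 and 50 µM (selected compounds 0.1–100 µM), DMSO as negative control. MTT added 150 min before end, formazan read at 570 nm; IC50 by nonlinear fit, ≥3 independent experiments in triplicate.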

[6] = system: HTB-54 cells (lung adenocarcinoma); assay: MTT cell viability assay, HTB-54; assay type: cell-based, human
In short: as §5

HCT-116 cells (colon) = assay: MTT cell viability assay, HCT-116; assay type: cell-based; conditions: Homo sapiens, HCT-116; 48 h, MTT, mean ± SD; read-out: IC50 HCT-116 (colon)
HT-29 cells = assay: Annexin V-APC/7AAD cell death assay; assay type: cell-based, human
Method: 6 × 10^5 cells/well were grown in 6-well plates for 24 h. Cultures were treated with the corresponding amount of the selected compounds, DMSO (control), or 10 μM camptothecin (positive control). Propidium iodide (PI) was used as DNA stain dye to determine cell cycle distribution. Cells were stored at −20 °C with 70% ethanol for at least 24 h. Then, ethanol was removed, cells were washed with PBS, and stained for 30 min with 500 µL of a solution containing 0.001% triton, 0.2% w/v RNase, and 0.02% PI.
For the determination of apoptosis, APC Annexin V Apoptosis Detection Kit with 7-AAD from Biolegend® was employed following the staining procedure described by the manufacturer. Samples were analyzed by flow cytometry using a BD Accuri™ C6 Plus Flow Cytometer (Beckton, Dickinson and company, Franklin Lakes (NJ), USA).
Mounting evidence of the anticancer potential of selenium compounds can be found in the literature. […] Remarkably, these mechanisms vary depending on the selenium compound and on cell phenotype. […] Assays were conducted at different 6c concentrations ranging from 0.1 to 10 µM. Camptothecin (10 µM) was used as positive control.

[7] = HT-29, 6c 10 µM, 24 h, 30 min preincubation

COc1ccc(NC(=[Se])NC23CC4CC(CC(C4)C2)C3)cc1 [Compound 6c, N´-adamantyl-N-(4-methoxyphenyl)selenourea] was tested, and the IC50 [1] was 4.73 ± 0.79 µM, the IC50 [2] was 7.23 ± 2.28 µM and the LC50 (concentration killing 50% of cells) (UO-31 (renal cancer); Homo sapiens, UO-31, read-out: LC50) was 9.77 µM. It also gave a GI50 (UO-31 (renal cancer); Homo sapiens, UO-31, NCI-60) of 1.74 µM, a TGI (UO-31 (renal cancer); UO-31, NCI-60) of 4.07 µM and a GI50 (NCI-60 cell line panel; average for the 60 cell lines) of 1.49 µM. For the same molecule, the “average TGI” value (NCI-60 cell line panel; average for the 60 cell lines) was 9.17 µM, the LC50 (NCI-60 cell line panel; read-out: LC50 values against 10 of the NCI60 cancer cell lines) was 4.27 to 9.33 µM and the CC50 (M14 (melanoma); Homo sapiens, M14, read-out: LC50) was 7.94 µM. It also gave a GI50 (M14 (melanoma); Homo sapiens, M14, NCI-60) of 1.38 µM, a TGI (M14 (melanoma); M14, NCI-60) of 3.31 µM and a TGI (BT-549 (breast cancer); BT-549, NCI-60) of 2.29 µM. The CC50 (BT-549 (breast cancer); Homo sapiens, BT-549, read-out: LC50) was 5.62 µM, the GI50 (BT-549 (breast cancer); Homo sapiens, BT-549, NCI-60) was 0.87 µM and the CC50 ([3]; OVACAR3, read-out: LC50) was 7.41 µM. The GI50 ([3]; OVACAR3, OVACAR-3, NCI-60) was 1.38 µM, the TGI ([3]; OVACAR-3, NCI-60) was 3.24 µM and the CC50 ([4]; Homo sapiens, MDA-MB-468, read-out: LC50) was 8.71 µM. It also gave a GI50 ([4]; Homo sapiens, MDA-MB-468, NCI-60) of 1.35 µM, a TGI ([4]; MDA-MB-468, NCI-60) of 3.39 µM and a TGI (HCT-116 (colon cancer); HCT-116, NCI-60) of 2.75 µM. For the same molecule, the CC50 (HCT-116 (colon cancer); Homo sapiens, HCT-116, read-out: LC50) was 6.03 µM, the GI50 (HCT-116 (colon cancer); Homo sapiens, HCT-116, NCI-60) was 1.29 µM and the IC50 ([5]; HT-29, mean ± SD, read-out: IC50 HT-29 (colon)) was 5.6 ± 1.24 µM. It also gave a viability at 10 µM ([5]; HT-29, 10 µM, read-out: cell viability, percentage of live cells) of 34.6%, a viability at 50 µM ([5]; HT-29, 50 µM, read-out: cell viability, percentage of live cells) of 25.7% and an IC50 ([6]; Homo sapiens, HTB-54, 48 h, MTT, mean ± SD, read-out: IC50 HTB-54 (lung)) of 5.09 ± 0.28 µM. For the same molecule, the viability at 10 µM ([6]; Homo sapiens, HTB-54, 10 µM, 48 h, MTT, read-out: cell viability, percentage of live cells) was 33.1%, the viability at 50 µM ([6]; Homo sapiens, HTB-54, 50 µM, 48 h, MTT, read-out: cell viability, percentage of live cells) was 30.9% and the “SI (selectivity index) lung” value ([6]; IC50 (BEAS-2B)/IC50 (HTB-54)) was 0.93. For the same molecule, the IC50 (HCT-116 cells (colon)) was 3.6 ± 0.74 µM, the “cell death after pre-incubation with PI3K inhibitor wortmannin” value (HT-29 cells; [7]) was “prevented induction cell death” and the “number of dead cells after pre-incubation with pancaspase inhibitor z-VAD-fmk” value (HT-29 cells; [7]) was “no significant differences in the number of dead cells”. The “number of dead cells (7AAD positive cells)” value (HT-29 cells; HT-29, 48 h, 5 and 10 µM) was “increased the number of dead cells”.
